# Source: PubChem BioAssay (NCI)
#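 Step 1: Grow cells in 96-well plates. Step 2: Expose to compound for 48 hours at 5 concentrations. Step 3: Interpolate endpoints linearly; if unreached, use highest concentration. At the GI50, growth is halved. Definition used: TGI = concentration required for complete inhibition of growth.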
# Columns and labels:
# Test in all cases: growth of human tumour cells (NCI), 48 h
# [1] = tested on: 786-0 renal
# [2] = tested on: A498 renal
# [3] = tested on: A549 NSCLC
# [4] = tested on: ACHN renal
# [5] = tested on: CAKI-1 renal
# [6] = tested on: CCRF-CEM leukemia
# [7] = tested on: COLO 205 colon
# [8] = tested on: DLD-1 colon
# [9] = tested on: DMS 114 small cell lung
# [10] = tested on: DMS 273 small cell lung
# [11] = tested on: EKVX NSCLC
# [12] = tested on: HCC-2998 colon
# [13] = tested on: HCT-116 colon
# [14] = tested on: HCT-15 colon
# [15] = tested on: HL-60(TB) leukemia
# [16] = tested on: HOP-62 NSCLC
# [17] = tested on: HOP-92 NSCLC
# [18] = tested on: HT29 colon
# [19] = tested on: IGROV1 ovarian
# [20] = tested on: K-562 leukemia
# [21] = tested on: KM12 colon
# [22] = tested on: KM20L2 colon
# [23] = tested on: LOX IMVI melanoma
# [24] = tested on: LXFL 529 NSCLC
# [25] = tested on: M14 melanoma
# [26] = tested on: M19-MEL melanoma
# [27] = tested on: MALME-3M melanoma
# [28] = tested on: MOLT-4 leukemia
# [29] = tested on: NCI-H226 lung
# [30] = tested on: NCI-H23 lung
# [31] = tested on: NCI-H460 lung
# [32] = tested on: NCI-H522 lung
# [33] = tested on: OVCAR-3 ovarian
# [34] = tested on: OVCAR-4 ovarian
# [35] = tested on: OVCAR-5 ovarian
# [36] = tested on: OVCAR-8 ovarian
# [37] = tested on: RPMI-8226 leukemia
# [38] = tested on: RXF 393 renal
# [39] = tested on: SF-295 CNS
# [40] = tested on: SF-539 CNS
# [41] = tested on: SK-MEL-2 melanoma
# [42] = tested on: SK-MEL-28 melanoma
# [43] = tested on: SK-MEL-5 melanoma
# [44] = tested on: SK-OV-3 ovarian
# [45] = tested on: SN12C renal
# [46] = tested on: SNB-19 CNS
# [47] = tested on: SNB-75 CNS
# [48] = tested on: SNB-78 CNS
# [49] = tested on: SR leukemia
# [50] = tested on: SW-620 colon
# [51] = tested on: TK-10 renal
# [52] = tested on: U251 CNS
# [53] = tested on: UACC-257 melanoma
# [54] = tested on: UACC-62 melanoma
# [55] = tested on: UO-31 renal
# [56] = tested on: XF 498 CNS
# [57] = tested on: HOP-18 NSCLC
# [58] = tested on: SF-268 CNS
compound,measurement,setting,value
C/C=C/C1(C)/C(=N\O)C(C)(CCC)C(=O)N1O (centres undefined),TGI,[1],> 100 µM
same,TGI,[2],> 100 µM
same,TGI,[3],> 100 µM
same,TGI,[4],> 100 µM
same,TGI,[5],> 100 µM
same,TGI,[6],> 100 µM
same,TGI,[7],> 100 µM
same,TGI,[8],> 100 µM
same,TGI,[9],> 100 µM
same,TGI,[10],> 100 µM
same,TGI,[11],> 100 µM
same,TGI,[12],> 100 µM
same,TGI,[13],> 100 µM
same,TGI,[14],> 100 µM
same,TGI,[15],> 100 µM
same,TGI,[16],> 100 µM
same,TGI,[17],> 100 µM
same,TGI,[18],> 100 µM
same,TGI,[19],> 100 µM
same,TGI,[20],> 100 µM
same,TGI,[21],> 100 µM
same,TGI,[22],> 100 µM
same,TGI,[23],> 100 µM
same,TGI,[24],> 100 µM
same,TGI,[25],> 100 µM
same,TGI,[26],> 100 µM
same,TGI,[27],> 100 µM
same,TGI,[28],> 100 µM
same,TGI,[29],> 100 µM
same,TGI,[30],> 100 µM
same,TGI,[31],> 100 µM
same,TGI,[32],> 100 µM
same,TGI,[33],> 100 µM
same,TGI,[34],> 100 µM
same,TGI,[35],> 100 µM
same,TGI,[36],> 100 µM
same,TGI,[37],> 100 µM
same,TGI,[38],> 100 µM
same,TGI,[39],> 100 µM
same,TGI,[40],> 100 µM
same,TGI,[41],> 100 µM
same,TGI,[42],> 100 µM
same,TGI,[43],> 100 µM
same,TGI,[44],> 100 µM
same,TGI,[45],> 100 µM
same,TGI,[46],> 100 µM
same,TGI,[47],> 100 µM
same,TGI,[48],> 100 µM
same,TGI,[49],> 100 µM
same,TGI,[50],> 100 µM
same,TGI,[51],> 100 µM
same,TGI,[52],> 100 µM
same,TGI,[53],> 100 µM
same,TGI,[54],> 100 µM
same,TGI,[55],> 100 µM
same,TGI,[56],> 100 µM
O=C1C(C(Nc2ccccc2)c2ccccc2)=C([O-])c2ccccc21.O=C1C(C(Nc2ccccc2)c2ccccc2)=C([O-])c2ccccc21.[Ni+2] (centres undefined),GI50,[2],7.57 µM
same,TGI,[2],> 100 µM
same,GI50,[3],4.17 µM
same,TGI,[3],> 100 µM
same,GI50,[4],7.81 µM
same,TGI,[4],> 100 µM
same,GI50,[5],28.8 µM
same,TGI,[5],> 100 µM
same,GI50,[6],3.96 µM
same,TGI,[6],> 100 µM
same,GI50,[8],4.2 µM
same,TGI,[8],> 100 µM
same,GI50,[11],3.33 µM
same,TGI,[11],9.82 µM
same,GI50,[12],4.41 µM
same,TGI,[12],> 100 µM
same,GI50,[13],3.05 µM
same,TGI,[13],> 100 µM
same,GI50,[14],4.09 µM
same,TGI,[14],> 100 µM
same,GI50,[57],31.1 µM
same,TGI,[57],> 100 µM
same,GI50,[16],14.2 µM
same,TGI,[16],> 100 µM
same,GI50,[17],6.14 µM
same,TGI,[17],55.6 µM
same,GI50,[18],4 µM
same,TGI,[18],> 100 µM
same,GI50,[19],4.9 µM
same,TGI,[19],> 100 µM
same,GI50,[20],3.59 µM
same,TGI,[20],> 100 µM
same,GI50,[21],4.01 µM
same,TGI,[21],> 100 µM
same,GI50,[22],24.4 µM
same,TGI,[22],77.7 µM
same,GI50,[23],5.81 µM
same,TGI,[23],> 100 µM
same,GI50,[25],7.99 µM
same,TGI,[25],> 100 µM
same,GI50,[26],11 µM
same,TGI,[26],> 100 µM
same,GI50,[27],7.91 µM
same,TGI,[27],> 100 µM
same,GI50,[28],3.71 µM
same,TGI,[28],> 100 µM
same,GI50,[29],17.9 µM
same,TGI,[29],> 100 µM
same,GI50,[30],5.23 µM
same,TGI,[30],> 100 µM
same,GI50,[31],4.46 µM
same,TGI,[31],> 100 µM
same,GI50,[33],22.2 µM
same,TGI,[33],66.4 µM
same,GI50,[34],16.5 µM
same,TGI,[34],> 100 µM
same,GI50,[35],3.55 µM
same,TGI,[35],49.5 µM
same,GI50,[36],4.43 µM
same,TGI,[36],> 100 µM
same,GI50,[38],4.9 µM
same,TGI,[38],85 µM
same,GI50,[58],3.35 µM
same,TGI,[58],> 100 µM
same,GI50,[39],3.69 µM
same,TGI,[39],> 100 µM
same,GI50,[40],3.66 µM
same,TGI,[40],> 100 µM
same,GI50,[41],3.32 µM
same,TGI,[41],15.2 µM
same,GI50,[42],9.95 µM
same,TGI,[42],> 100 µM
same,GI50,[43],1.34 µM
same,TGI,[43],7.45 µM
same,GI50,[44],2.66 µM
same,TGI,[44],6.78 µM
same,GI50,[45],4.56 µM
same,TGI,[45],> 100 µM
same,GI50,[46],25.6 µM
same,TGI,[46],56.7 µM
same,GI50,[47],6.34 µM
same,TGI,[47],94.7 µM
same,GI50,[48],7.6 µM
same,TGI,[48],> 100 µM
same,GI50,[49],3.72 µM
same,TGI,[49],> 100 µM
same,GI50,[50],5.3 µM
same,TGI,[50],> 100 µM
same,GI50,[51],12.8 µM
same,TGI,[51],> 100 µM
same,GI50,[53],42.3 µM
same,TGI,[53],> 100 µM
same,GI50,[54],6.59 µM
same,TGI,[54],51 µM
same,GI50,[55],11.5 µM
same,TGI,[55],> 100 µM
same,GI50,[56],4.9 µM
same,TGI,[56],54.8 µM
